Calls of active or inactive are those of the source. The rule behind the calls is not given here.

The test system of test [1] is Monkey. Put plainly: Physical dependence capacity (PDC) of the compound; very low physical dependence capacity. It is filed as functional, organism-based. To be noted: Cercopithecidae.
The subject of test [2] is Monkey. In words: Antagonistic potency of the compound; not active. Conditions: Cercopithecidae. It is filed as functional, organism-based.
For test [3], the system named is Monkey. Put plainly: Analgesic activity in monkeys. It is filed as functional, Cercopithecidae.
The species entered for test [4] is Mus musculus. Put plainly: Ratio between the ED50 values in presence and absence of sodium. It is filed as functional.
Test [5] concerns the target Mu-type opioid receptor (Mus musculus) (UniProt P42866). Put plainly: Compound was evaluated for the inhibition of [3H]-naloxone binding to mouse brain homogenate at 1 nM in the presence of 100 mM sodium. Type of test: tissue-based.
Test [6] has the same target. In words: (§1) Compound was evaluated for the inhibition of [3H]naloxone binding to mouse brain homogenate at 1 nM in the absence of sodium. Type of test: tissue-based.
The species named for test [7] is Mus musculus. In words: Compound was evaluated for the hotplate analgesic activity; IA=inactive. Type of test: functional, organism-based.
For test [8], the species on record is Mus musculus. Put plainly: Compound was evaluated for the hotplate analgesic activity in mouse. It is filed as functional. More on the design: unit not given here.
Test [9] is filed under the species Mus musculus. Put plainly: Compound was evaluated for the inhibition of [3H]naloxone binding to mouse brain homogenate at 1 nM in the presence of 100 mM sodium; ED50 = […] nM. It is filed as functional.
The species named for test [10] is Mus musculus. The description is as §1. Type of test: functional.
The species entered for test [11] is Mus musculus. In words: Ratio between the ED50 values in presence and absence of sodium; value ranges from […]. Type of test: functional.
Test [12] deals with Mu-type opioid receptor (Mus musculus) (UniProt P42866). In words: Compound was evaluated for the inhibition of [3H]naloxone binding to opioid receptor mu of mouse brain homogenate at 1 nM in the presence of 100 mM sodium; ED50=600-700 nM. It is filed as tissue-based.
For test [13], the species on record is Mus musculus. Put plainly: Ratio between the ED50 values in presence and absence of sodium; value ranges from 1.2-1.5. It is filed as functional.
The species named for test [14] is Mus musculus. Put plainly: (§2) Compound was evaluated for the inhibition of [3H]naloxone binding to mouse brain homogenate at 1 nM in the presence of 100 mM sodium. It is filed as functional.
Test [15] concerns Monkey. Put plainly: Physical dependence capacity (PDC) of the compound; no physical dependence capacity. It is filed as functional, organism-based. Conditions: Cercopithecidae.
For test [16], the species on record is Mus musculus. Put plainly: Ratio between the ED50 values in presence and absence of sodium; value ranges from 4-5. It is filed as functional.
The species named for test [17] is Mus musculus. In words: Compound was evaluated for the inhibition of [3H]naloxone binding to mouse brain homogenate at 1 nM in the presence of 100 mM sodium; ED50 = 800-1000 nM. It is filed as functional.
Test [18] addresses Mu-type opioid receptor (Mus musculus) (UniProt P42866). In words: Compound was evaluated for the inhibition of [3H]naloxone binding to opioid receptor mu of mouse brain homogenate at 1 nM in the absence of sodium. Type of test: tissue-based.
Test [19] shares this target. In words: Compound was evaluated for the inhibition of [3H]naloxone binding to opioid receptor mu mouse brain homogenate at 1 nM in the presence of 100 mM sodium; ED50 = 40-50 nM. Type of test: tissue-based.
For test [20], the species on record is Mus musculus. Put plainly: Ratio between the ED50 values in presence and absence of sodium; value ranges from 2-2.5. Type of test: functional.
The species named for test [21] is Mus musculus. Put plainly: Compound was evaluated for the hotplate analgesic activity. It is filed as functional.
Test [22] relates to Monkey. Put plainly: Physical dependence capacity (PDC) of the compound; high physical dependence capacity. It is filed as functional, organism-based. Conditions: Cercopithecidae.
The subject of test [23] is Monkey. Put plainly: aAntagonistic potency of the compound; not active. To be noted: Cercopithecidae. It is filed as functional, organism-based.
In test [24] the target is Mu-type opioid receptor (Mus musculus) (UniProt P42866). The description is as §2. It is filed as tissue-based.
Test [25] shares this target. In words: Compound was evaluated for the inhibition of [3H]naloxone binding to mouse brain homogenate at 1 nM in the absence of sodium; ED50 = 7-10 nM. It is filed as tissue-based.
Test [26] shares this target. Put plainly: Ratio between the ED50 values in presence and absence of sodium; value ranges from 7-10.
In test [27] the test system is Monkey. In words: Physical dependence capacity (PDC) of the compound; low physical dependence capacity. Type of test: functional, organism-based. Conditions: Cercopithecidae.
Test [28] has as its target Mu-type opioid receptor (Rattus norvegicus) (UniProt P33535). In words: Ratio between the ED50 values in presence and absence of sodium; value ranges from 3.8-5. It is filed as functional. To be noted: Mus musculus.
The species entered for test [29] is Mus musculus. Put plainly: Compound was evaluated for the inhibition of [3H]naloxone binding to mouse brain homogenate at 1 nM in the presence of 100 mM sodium; ED50 = 1500-2000 nM. Type of test: functional.
Test [30] relates to Monkey. In words: Physical dependence capacity (PDC) of the compound; intermed physical dependence capacity. To be noted: Cercopithecidae. Type of test: functional, organism-based.
Where [31] appears, read: Cercopithecidae, in Primates, read-out: ED50.

Chain of Mu-type opioid receptor (Mus musculus) (P42866 whole entry): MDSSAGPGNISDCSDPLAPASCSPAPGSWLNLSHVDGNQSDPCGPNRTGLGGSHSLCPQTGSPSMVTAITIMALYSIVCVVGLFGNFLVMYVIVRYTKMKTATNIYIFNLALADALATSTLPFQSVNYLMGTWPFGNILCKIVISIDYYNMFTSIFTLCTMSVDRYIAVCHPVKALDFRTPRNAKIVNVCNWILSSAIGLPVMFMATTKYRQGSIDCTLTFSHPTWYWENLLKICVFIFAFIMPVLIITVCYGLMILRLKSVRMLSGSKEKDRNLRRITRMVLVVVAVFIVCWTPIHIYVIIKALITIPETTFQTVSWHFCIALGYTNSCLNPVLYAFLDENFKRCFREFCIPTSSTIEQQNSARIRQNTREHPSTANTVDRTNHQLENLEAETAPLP
Chain of Mu-type opioid receptor (Rattus norvegicus) (P33535 whole entry): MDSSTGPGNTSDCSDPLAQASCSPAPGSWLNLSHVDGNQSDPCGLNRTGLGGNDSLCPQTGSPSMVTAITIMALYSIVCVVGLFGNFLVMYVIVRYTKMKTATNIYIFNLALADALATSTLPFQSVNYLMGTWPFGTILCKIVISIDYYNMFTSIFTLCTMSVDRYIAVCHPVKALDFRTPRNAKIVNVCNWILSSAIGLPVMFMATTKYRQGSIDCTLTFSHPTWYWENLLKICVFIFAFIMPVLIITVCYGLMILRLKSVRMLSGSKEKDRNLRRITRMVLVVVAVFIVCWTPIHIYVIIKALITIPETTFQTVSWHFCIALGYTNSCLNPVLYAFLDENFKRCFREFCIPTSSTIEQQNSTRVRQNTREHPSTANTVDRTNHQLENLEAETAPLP

`CN1CC[C@]2(C)CC1Cc1ccc(O)cc12` (stereo in doubt; form 1) [listing 1 of 2 here]: the PDC entry in test [1] is “no physical dependence capacity”. For the same compound, the Antagonist potency entry in test [2] was “inactive”.

`CC1C2Cc3ccc(O)cc3[C@@H]1CCN2C` (stereo in doubt; form 2) showed an ED50 in [3] of 4.3 mg/kg.

In test [3], `CC1C2Cc3ccc(O)cc3[C@]1(C)CCN2C` (stereo in doubt; form 1) had an ED50 of 0.1 mg/kg.

`CCCCCCCCCN1CCC(C(=O)CC)(c2cccc(O)c2)CC1`: the Ratio in test [4] was 1. Further, the ED50 in test [5] and in test [6] was 700 nM each time. Further, the ED50 entry in test [7] is “inactive”.

On to `CCCCN1CCC(C(=O)CC)(c2cccc(O)c2)CC1`, for which the ED50 turned out to be 4.6 in [8], 600 nM in test [9] and 50 nM in test [10]. For the same compound, in [11], the Ratio was 12.

On to `CN1CC[C@@H]2CC1Cc1ccc(O)cc12`, for which the ED50 in test [3] (setting [31]) was 4.5 mg/kg.

Take `CCCCCCCCCCN1CCC(C(=O)CC)(c2cccc(O)c2)CC1`: the ED50 in test [12] was 600 nM; in test [6], 500 nM. In addition, the Ratio in test [13] is 1.2. Besides, the ED50 entry in test [7] is “inactive”.

Turning to `CCCCCCN1CCC(C(=O)CC)(c2cccc(O)c2)CC1`, the Ratio in [4] is on record as 2. In addition, the ED50 in test [8] amounted to 7.5; in [14], 40 nM; in [10] it was 20 nM.

In the case of `CN1CC[C@]2(C)CC1Cc1ccc(O)cc12` (stereo in doubt; form 3) [listing 1 of 2 here], the PDC result in test [15] was “no physical dependence capacity”.

Take `CN1CC[C@]2(C)CC1Cc1ccc(O)cc12` (stereo in doubt; form 1) [listing 2 of 2 here]: the ED50 in test [3] came out at 22.9 mg/kg.

Take `CN1CC[C@]2(C)CC1Cc1ccc(O)cc12` (stereo in doubt; form 3) [listing 2 of 2 here]: the ED50 in test [3] is 1.8 mg/kg.

Consider `CC1C2Cc3ccc(O)cc3[C@]1(C)CCN2C` (stereo in doubt; form 2), for which the ED50 in [3] is 1.2 mg/kg.

Consider `CCCN1CCC(C(=O)CC)(c2cccc(O)c2)CC1`, for which the Ratio in test [16] was 4. Also, the ED50 in [8] was 16; in test [17], 800 nM; in test [10], 200 nM.

The compound `CN1CC[C@]2(C)CC1Cc1ccc(O)cc12` (stereo in doubt; form 2) registered an ED50 in test [3] of 3.2 mg/kg.

On to `CCCCCCCN1CCC(C(=O)CC)(c2cccc(O)c2)CC1`, for which the values for the ED50 in test [18], in test [19] and in test [21] were 20 nM, 40 nM and 9000 nM, respectively. The Ratio in test [20] was determined as 2.

As to `CC1C2Cc3ccc(O)cc3[C@@H]1CCN2C` (stereo in doubt; form 1), the ED50 in test [3] came out at 1.1 mg/kg.

For the compound `CCC[C@]12CCN(C)C(Cc3ccc(O)cc31)[C@@H]2C`, the PDC entry in test [22] and in test [15] was “high physical dependence capacity” throughout. Moreover, in test [2], the Antagonist potency entry was “inactive”.

Turning to `CN1CC[C@]23c4c5ccc(O)c4O[C@H]2[C@@H](O)C=C[C@H]3[C@H]1C5` [MORPHINE], the PDC result in [22] was “Active”. Besides, in [23], the Antagonist potency result was “inactive”. Moreover, the ED50 in [3] (setting [31]) came out at 1.2 mg/kg.

Turning to `CCC(=O)C1(c2cccc(O)c2)CCN(C)CC1` [KETOBEMIDONE], the ED50 in test [24] turned out to be 70 nM; in [25], 7 nM; in test [8], 2.1. Further, the Ratio in test [26] was determined as 7.

For the compound `CC[C@]12CCN(C)C(Cc3ccc(O)cc31)C2`, the PDC result in [15] and in [27] was “low physical dependence capacity” throughout. Further, the Antagonist potency entry in test [2] was “inactive”.

As to `C[C@H]1C2Cc3ccc(O)cc3[C@]1(C)CCN2C`, in test [15], the PDC entry is “no physical dependence capacity”. In addition, in [2], the Antagonist potency entry is “inactive”. For the same compound, in test [3] (Cercopithecidae), the ED50 result is “inactive”. Further, in [3] (setting [31]), the ED50 is 0.6 mg/kg.

In the case of `CCC(=O)C1(c2cccc(O)c2)CCN(CC)CC1`, the Ratio in [28] was 3.8. Moreover, the ED50 in test [8] stood at 67.2; in test [29], 1500 nM; in test [10], 400 nM.

As for `CCCCCN1CCC(C(=O)CC)(c2cccc(O)c2)CC1`, the Ratio in test [4] was determined as 3.8. The ED50 is 0.78 in [8], 30 nM in test [14] and 8 nM in test [10].

In the case of `CC[C@H]1C2Cc3ccc(O)cc3[C@]1(CC)CCN2C`, the PDC entry in test [15] and in [30] was “intermed physical dependence capacity” throughout. Further, in [2], the Antagonist potency result is “inactive”.

For the compound `CCCCCCCCN1CCC(C(=O)CC)(c2cccc(O)c2)CC1`, in test [4], the Ratio was 1. For the same compound, the ED50 in test [5] was found to be 200 nM; in test [6], 200 nM; in test [21], 26500 nM.

Regarding `COc1ccc2c3c1O[C@H]1[C@@H](O)C=C[C@H]4[C@@H](C2)N(C)CC[C@@]341` [CODEINE], the Antagonist potency entry in test [2] is “inactive”. Moreover, the PDC result in [30] was “Partially active”. The ED50 in test [3] (setting [31]) worked out at 7.5 mg/kg.

For the origin of these results see ChEMBL document CHEMBL1126308, “Alfred Burger Award address. A half century in medicinal chemistry with major emphasis on pain-relieving drugs and their antagonists” (1992).
